According to patent US20020028938A1, “Prostaglandin endoperoxide H synthase biosynthesis inhibitors” (priority 1997, published 2002):
pIC50: −log10 of the molar value.

Columns and labels:
[1] = target: T1, recombinant human Cox-2 (r-hu Cox-2) (Homo sapiens, UniProt P35354); experiment: Recombinant human PGHS-2 enzyme assay (RHUCX2); format: biochemical; conditions: for pIC50: read-out: RHUCX2 IC50 (parenthetical value)
T1 construct: made in house; host or cells: baculovirus/Sf9 insect cells (microsomes)
T1 sequence (P35354 18-604): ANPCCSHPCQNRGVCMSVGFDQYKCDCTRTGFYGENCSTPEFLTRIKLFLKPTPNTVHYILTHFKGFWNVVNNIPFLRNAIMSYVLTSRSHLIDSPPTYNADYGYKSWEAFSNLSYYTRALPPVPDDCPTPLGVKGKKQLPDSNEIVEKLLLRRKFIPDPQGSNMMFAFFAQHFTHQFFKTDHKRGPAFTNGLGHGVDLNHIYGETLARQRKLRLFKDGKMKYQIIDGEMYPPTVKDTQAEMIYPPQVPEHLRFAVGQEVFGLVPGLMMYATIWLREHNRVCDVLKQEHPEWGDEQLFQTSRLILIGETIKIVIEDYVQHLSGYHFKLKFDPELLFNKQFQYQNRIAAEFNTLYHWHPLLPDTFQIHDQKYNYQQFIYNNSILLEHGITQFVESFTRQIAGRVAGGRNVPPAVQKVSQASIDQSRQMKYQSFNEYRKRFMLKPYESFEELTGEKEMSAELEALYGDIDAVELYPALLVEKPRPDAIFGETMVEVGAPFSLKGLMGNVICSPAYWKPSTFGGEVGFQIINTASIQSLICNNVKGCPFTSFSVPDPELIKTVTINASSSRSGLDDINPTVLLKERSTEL
Summary of the method: (§1)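 IC50 values come from linear regression of percent inhibition, itself calculated against the mean of untreated controls. The underlying signal is PGE2, determined by EIA after a brief room-temperature reaction (2.5 minutes) terminated with acid and then base-neutralized.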

[2] = target: T2, recombinant human Cox-1 (r-hu Cox1) (Homo sapiens, UniProt P23219); experiment: Recombinant human PGHS-1 enzyme assay (RHUCX1); format: biochemical; conditions: 100 μM; read-out: RHUCX1 % Inh. at Dose
T2 construct: made in house; host or cells: baculovirus/Sf9 insect cells (microsomes)
Summary of the method: as §1

[3] = read-out: RHUCX2 % Inh. at Dose

T2 sequence (P23219 24-599): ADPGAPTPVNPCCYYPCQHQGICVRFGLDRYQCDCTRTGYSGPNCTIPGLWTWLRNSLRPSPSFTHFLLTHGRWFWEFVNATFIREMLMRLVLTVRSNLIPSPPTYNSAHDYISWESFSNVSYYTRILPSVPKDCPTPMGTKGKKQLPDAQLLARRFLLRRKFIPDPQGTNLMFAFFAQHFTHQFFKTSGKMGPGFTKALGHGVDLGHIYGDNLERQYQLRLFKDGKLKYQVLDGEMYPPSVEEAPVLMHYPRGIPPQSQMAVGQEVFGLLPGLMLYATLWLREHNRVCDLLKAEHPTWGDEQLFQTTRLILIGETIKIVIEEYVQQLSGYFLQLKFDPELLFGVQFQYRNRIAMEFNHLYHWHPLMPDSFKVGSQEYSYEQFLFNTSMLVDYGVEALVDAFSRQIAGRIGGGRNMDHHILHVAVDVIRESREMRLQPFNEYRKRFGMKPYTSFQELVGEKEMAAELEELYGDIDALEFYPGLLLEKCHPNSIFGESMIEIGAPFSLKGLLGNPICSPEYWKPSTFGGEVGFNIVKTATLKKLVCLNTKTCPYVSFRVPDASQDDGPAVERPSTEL

| SMILES | inhibition at 0.01 µM [1, 3] [%] | inhibition at 0.1 µM [1, 3] [%] | inhibition at 100 µM [2] [%] | melting point [°C] | pIC50 [1] | inhibition at 1 µM [1, 3] [%] | inhibition at 10 µM ([1]; 10 μM, read-out: RHUCX2 % Inh. at Dose) [%] |
| --- | --- | --- | --- | --- | --- | --- | --- |
| C=C(C)CCOc1c(-c2ccc(S(C)(=O)=O)cc2)cnn(-c2ccc(F)cc2)c1=O [Example 425, 2-(4-Fluorophenyl)-4-(3-methyl-3-butenoxy)-5-[4-(methylsulfonyl)phenyl]-3(2H)-pyridazinone] | 31 | 69 | 12 | 109 to 111 | – | – | – |
| CC(C)=CCCOc1c(-c2ccc(S(C)(=O)=O)cc2)cnn(-c2cccc(Cl)c2)c1=O [Example 426, 2-(3-Chlorophenyl)-4-(4-methyl-3-pentenyloxy)-5-[4-(methylsulfonyl)phenyl]-3(2H)-pyridaznone] | – | – | 1 | 110 to 111 | 7.24 | – | – |
| C=CCC(C)COc1c(-c2ccc(S(C)(=O)=O)cc2)cnn(-c2ccc(F)cc2)c1=O (centres unmarked) [Example 434, 2-(4-Fluorophenyl)-4-(2-methyl-4-pentenyl-1-oxy)-5-[4-(methylsulfonyl)phenyl]-3(2H)-pyridazinone] | – | – | 0 | 106 to 107 | 7.09 | – | – |
| CC(C)CCCOc1c(-c2ccc(S(C)(=O)=O)cc2)cnn(-c2ccc(F)c(F)c2)c1=O [Example 437, 2-(3,4-Difluorophenyl)-4-(4-methyl-1-pentyloxy)-5-[4-(methylsulfonyl)phenyl]-3(21)-pyridazinone] | – | – | 16 | 98 to 99 | 6.91 | – | – |
| CC(C)CCOc1c(-c2ccc(S(C)(=O)=O)cc2)cnn(CC(F)(F)F)c1=O [Example 447, 2-(2,2,2-Trifluoroethyl)-4-(3-methylbutoxy)-5-[4-(methylsulfonyl)phenyl]-3(2H)-pyridazinone] | 35 | 57 | 0 | 111 to 113 | – | 90 | – |

Continued, values first:

| inhibition at 0.01 µM [1, 3] [%] | inhibition at 0.1 µM [1, 3] [%] | inhibition at 100 µM [2] [%] | melting point [°C] | pIC50 [1] | inhibition at 1 µM [1, 3] [%] | inhibition at 10 µM ([1]; 10 μM, read-out: RHUCX2 % Inh. at Dose) [%] | SMILES |
| --- | --- | --- | --- | --- | --- | --- | --- |
| – | – | 0 | 132 to 133 | 6.90 | – | – | CC(C)CC(C)Oc1c(-c2ccc(S(C)(=O)=O)cc2)cnn(-c2ccc(F)c(F)c2)c1=O (centres unmarked) [Example 438] |
| 22 | 59 | 20 | 126 to 127 | – | 84 | – | CS(=O)(=O)c1ccc(-c2cnn(-c3ccc(F)c(F)c3)c(=O)c2OCCC2C=CCC2)cc1 (centres unmarked) [Example 440, 2-(3,4-Difluorophenyl)-4-(2-cyclopent-2-enyl-1-ethoxy)-5-[4-(methylsulfonyl)phenyl]-3(2H)-pyridazinone] |
| 74 | 86 | 35 | 95 to 99 | – | – | – | CON=C(Cn1ncc(-c2ccc(S(C)(=O)=O)cc2)c(-c2ccc(F)cc2)c1=O)c1ccccc1 [Example 443, 2-(2-Methoxyimino-2-phenylethyl)-4-(4-fluorophenyl)-5-[4-(methylsulfonyl)phenyl]-3(2H)-pyridazinone] |
| – | 62 | 0 | 111 to 113 | – | 83 | 14 | CC(C)CCCc1c(-c2ccc(S(C)(=O)=O)cc2)cnn(-c2ccc(F)c(F)c2)c1=O [Example 444, 2-(3,4-Difluorophenyl)-4-(4-methylpentyl)-5-[4-(methylsulfonyl)phenyl]-3(2H)-pyridazinone] |
